Test results: patent US20080248008A1, “Inhibitors of Protein Kinase a Anchoring” (priority 2004, published 2008)
Entries after “also recorded” stand apart in the source; their conditions may differ.

Assays:
PKA-RIIα = PKA-RIIα (Homo sapiens, UniProt P13861); assay: Immunofluorescence of PKA-RIIα at centrosomes in human T cells; format: cell-based; parameters: endogenous in cells; host or cells: human peripheral blood CD3+ T cells; details: human peripheral blood T cells
Description: Blots were developed by using Supersignal West Pico substrate (Pierce). For immunofluorescence polyclonal and monoclonal antibodies against RIα (Biogenesis), RIIα (Transduction laboratories) and AKAP450 (A24, Tasken et al., 2001, J. Biol. Chem, 276:21999-22002) were used as primary antibodies. Secondary antibodies (all Molecular Probes) were Alexa-488 conjugated anti-mouse and anti-rabbit IgG (both goat) and Alexa-555 anti-rabbit IgG (goat).
(§1) Immunofluorescence analysis of cells was performed as previously described (Collas, P. et al., 1996, J. Cell Biol. 135, 1715-1725). RI was detected by using an anti-RI monoclonal antibody (Transduction Laboratories) as a primary antibody at a […] and Alexa-488 as a secondary antibody (1:600, Goat anti Mouse IgGs, Molecular Probes). Immunofluorescence was performed on Y1 cells attached to collagen/fibronectin coated coverslips. Mitochondria were stained using MitoTracker Red CMXRos (Molecular Probes) in fresh medium with incubation at 37° C. for 30 min prior to cell fixation. All cells were washed in PBS, fixed with 3% paraformaldehyde and permeabilised using 0.1% Triton X-100. […] Alternatively, fluorescently labeled cells were examined using a Leica TCS SP1 confocal fluorescence microscope (Leica, Heidelberg, Germany) equipped with an Ar (488 nm) and two He/Ne (543 and 633 nm) laser lines. […]

PKA-RIα = PKA-RIα (Homo sapiens, UniProt P10644); assay: Immunofluorescence of PKA-RIα localisation in human T cells; format: cell-based; parameters: endogenous in cells; host or cells: human peripheral blood CD3+ T cells; details: 5 μM
Description: as §1, with “X-100. Proteins were blocked in 2% BSA/PBST prior to antibody labeling. Primary and secondary antibodies were used at a 1:200 dilution in BSA/PBST and incubated for 30 min. DNA was counterstained using TO-PRO 3 (Molecular Probes) at a concentration of 1 μM.” for “X-100.”
Isolated human peripheral blood T cells were treated with MEME3-Arg11 peptide at different concentrations, and the location of PKARIα determined by immunofluorescence.

Y1 adrenal cells = assay: Progesterone production in Y1 adrenal cells; format: cell-based, mouse; details: Actinomycin D treated cells
Description: Mouse adrenocortical Y1 cells were obtained from ATCC (Cat. No. CCL-79) and maintained in DMEM/HAM'S F-12 (Cat. No. E15-813, PAA Laboratories GmbH, Pasching, Austria) supplemented with 100 μg/ml streptomycin, 100 U/ml penicillin and 10% (v/v) fetal calf serum in a humidified atmosphere of 5% CO2 and split by trypsination at less than 80% confluence.
Progesterone production and StAR protein level. Y1 cells were cultured overnight in 6-well plates at the density of 1.5×10^6 cells per well. To increase the basal level of StAR, the cells were pre-stimulated with 10 μM forskolin for 1 hour, washed twice with medium, before peptide loading. Thereafter, the cells were loaded with 50 μM of the arginine-coupled peptide for 5 hours before being treated with 5 μg/ml Actinomyocin D (Cat. No. A-9415, Sigma) for 30 min and stimulated with 10 μM forskolin (Cat. No. 344270, Calbiochem) or 10 IU/ml ACTH (Cat. No. A-6303, Sigma) for 12 hours. […] Progesterone in the cell medium was measured by using either Spectria Progesterone RIA (Cat. No. 68521, Orion Diagnostica, Espoo, Finland) or DELFIA progesterone kit (Cat. No. A066-101, PerkinElmer) following the conditions recommended by the manufacture. The cells were lysed and the StAR protein was analysed by western blotting and the level measured by densiometric analysis.

[1] = target: T1, RI in lipid rafts of Jurkat T cells (Homo sapiens, UniProt P10644); assay: PKA content of lipid rafts from transfected Jurkat T cells (densitometry); format: cell-based; details: n=1
T1 construct: endogenous in cells; host or cells: Jurkat T cells
Description: Densitometric analysis. The densitometric analysis was performed using Scion Image (www.scioncorp.com) (Scion Coorperation, Mo., USA) or Quantity One version 4.5.0, (BioRad).
Cell cultures and transient transfections. The human leukemic T cell line Jurkat (clone E6.1), Jurkat TAg, a derivative of the Jurkat cell line stably transfected with the SV40 large T antigen (Clipstone, N. A., and Crabtree, G. R., 1992, Nature. 357:695-697) was cultured at 37° C. in RPMI medium (Gibco BRL) supplemented with 10% fetal calf serum, 2 mM glutamine, penicillin, streptomycin, 1 mM sodium pyruvate and nonessential amino acids. For transfections, cells (5×10^6) in 0.4 ml Opti-MEM were mixed with 40 μg of each DNA construct (GFP-MEME3 or GFP-Scrambled MEME3) in electroporation cuvettes with a 0.4-cm electrode gap (BioRad Laboratories) and subjected to an electric field of 250 V/cm with 960 μF capacitance. A total of 2×10^7 cells were transfected per DNA construct. The cells were expanded in complete medium and harvested after 20 h. The transfection efficiency was determined by microscopic analysis.
Immunoblot analysis. Immunocomplexes and lipid raft fractions were analysed on a 10, 15% or 4-20% PAGE and blotted onto PVDF membranes. […]
Lipid Raft Purification. […] The fractions were analysed by immunoblot analysis. […]

Chain of PKA-RIIα (P13861 whole entry): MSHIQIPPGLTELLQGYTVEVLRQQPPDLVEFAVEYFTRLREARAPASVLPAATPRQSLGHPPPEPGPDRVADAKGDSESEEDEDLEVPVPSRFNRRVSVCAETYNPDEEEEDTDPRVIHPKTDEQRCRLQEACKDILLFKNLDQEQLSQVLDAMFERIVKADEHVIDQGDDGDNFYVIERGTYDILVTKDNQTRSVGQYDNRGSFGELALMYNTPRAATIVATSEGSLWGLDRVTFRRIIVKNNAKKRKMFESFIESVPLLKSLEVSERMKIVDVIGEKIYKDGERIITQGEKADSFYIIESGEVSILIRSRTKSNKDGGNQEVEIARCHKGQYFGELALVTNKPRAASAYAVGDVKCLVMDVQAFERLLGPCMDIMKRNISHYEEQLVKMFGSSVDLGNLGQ

| Compound | displacement of PKA-RIIα from centrosomes (PKA-RIIα) | displacement of RI from T cell membranes / cell periphery (PKA-RIα) | inhibition relative to that with mutated PKA phosphorylation site in StAR (Y1 adrenal cells) | reduction of progesterone production compared to SM3-Arg11 (Y1 adrenal cells; forskolin) [%] | reduction of RI concentration in lipid rafts compared to SM3 [1] [%] |
| --- | --- | --- | --- | --- | --- |
| LEQYANQLADQIIKEATERRRRRRRRRrr [MEME3-Arg11] | no displacement of PKA-RIIα | Displacement of RI from T cell membranes was observed; also recorded: displaced and delocalized | approximately 80% | 60 | – |
| CC[C@H](C)[C@H](NC(=O)[C@H](CCC(N)=O)NC(=O)[C@H](CC(=O)O)NC(=O)[C@H](C)NC(=O)[C@H](CC(C)C)NC(=O)[C@H](CCC(N)=O)NC(=O)[C@H](CC(N)=O)NC(=O)[C@H](C)NC(=O)[C@H](Cc1ccc(O)cc1)NC(=O)[C@H](CCC(N)=O)NC(=O)[C@H](CCC(=O)O)NC(=O)[C@@H](N)CC(C)C)C(=O)N[C@H](C(=O)N[C@@H](CCCCN)C(=O)N[C@@H](CCC(=O)O)C(=O)N[C@@H](C)C(=O)N[C@H](C(=O)N[C@@H](CCC(=O)O)C(=O)N[C@@H](CCCCNC(=O)c1ccc2c(c1)C(=O)OC21c2ccc(O)cc2Oc2cc(O)ccc21)C(N)=O)[C@@H](C)O)[C@@H](C)CC [MEME3] | – | – | – | – | 40 |
